Reference: patent US11965039B2, “Compstatin analogues and their medical uses” (priority 2018, dated 2024)
pIC50: −log10 of the molar value. Read-outs that look alike come from different tables or passages of the source. Starred links: 1 amine or outer side, 2 acyl side, 3 side chain; linkers in the order of their positions; H or OH if unused. Positions of bridges follow the written chain, without caps; N, C: chain ends. Non-standard residues stand in square brackets, D forms with d. Residues, ends and D or L forms follow the SMILES beside them. Groups on a side chain read outwards from the residue. *: point of attachment. C20 diacid = O=C(O)CCCCCCCCCCCCCCCCCCC(=O)*; Trp(1-Me) = Cn1cc(C[C@H](N)C(=O)O)c2ccccc21; C18 diacid = O=C(O)CCCCCCCCCCCCCCCCC(=O)*; C16 diacid = O=C(O)CCCCCCCCCCCCCCC(=O)*; γGlu = O=C(O)[C@H](CCC(=O)[*:2])N[*:1]; AEEA = NCCOCCOCC(=O)O; Sar = CNCC(=O)O

Test system: classical complement pathway
Test: In vitro haemolysis assay (inhibition of classical complement pathway)
Assay type: cell-based, human
Conditions: human serum, sensitized sheep red blood cells
How it was run: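 Compound dilutions preincubated 15 min at room temperature with diluted human serum (titrated per batch for 70-90% maximal haemolysis), then antibody-sensitized sheep RBC (10^7/well) added for 30 min at 37 °C in Tris/casein buffer, pH 7.4. Stopped with EDTA; haemolysis read at 405 nm; IC50 by 4PL fit.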

[1] = Table 3, given as upper bounds, read-out: IC50, inhibition of hemolysis

| Structure (SMILES) | pIC50 [1] | further results |
| --- | --- | --- |
| CC[C@H](C)[C@H](NC(C)=O)C(=O)N[C@H]1CSSC[C@@H](C(=O)N[C@H](C(=O)N[C@@H](CCC(=O)O)C(=O)NCC(=O)N[C@@H](CCCCNC(=O)COCCOCCNC(=O)COCCOCCNC(=O)CC[C@H](NC(=O)CCCCCCCCCCCCCCCCCCC(=O)O)C(=O)O)C(N)=O)[C@@H](C)O)NC(=O)[C@H](CCCNC(=N)N)NC(=O)[C@H](Cc2c[nH]cn2)NC(=O)[C@H](CCC(=O)O)NC(=O)CNC(=O)[C@H](Cc2c[nH]c3ccccc23)NC(=O)[C@H](CC(=O)O)NC(=O)[C@H](CCC(N)=O)NC(=O)[C@H](Cc2c[nH]c3ccccc23)NC(=O)[C@H]([C@@H](C)CC)NC1=O [Compound 98] (Ac-ICIWQDWGEHRCTEGK([AEEA-AEEA-γGlu-C20 diacid])-NH2; disulfide 2-12) | > 6.30 |  |
| CC[C@H](C)[C@@H]1NC(=O)[C@@H](NC(=O)[C@H](Cc2ccccc2)NC(=O)[C@H](CCC(=O)O)NC(=O)[C@H](CO)NC(C)=O)CSSC[C@@H](C(=O)N(C)CC(=O)N[C@@H](CCC(=O)O)C(=O)NCC(=O)N[C@@H](CCC(=O)O)C(=O)N[C@@H](CO)C(=O)N[C@@H](CCC(=O)O)C(=O)N[C@@H](CO)C(=O)N[C@@H](CCCCNC(=O)CC[C@H](NC(=O)CNC(=O)CC[C@H](NC(=O)CCCCCCCCCCCCCCCCC(=O)O)C(=O)O)C(=O)O)C(N)=O)NC(=O)[C@H](CCCNC(=N)N)NC(=O)[C@H](Cc2c[nH]cn2)NC(=O)[C@H](CCC(=O)O)NC(=O)CNC(=O)[C@H](Cc2c[nH]c3ccccc23)NC(=O)[C@H](CC(=O)O)NC(=O)[C@H](CCC(N)=O)NC(=O)[C@H](Cc2cn(C)c3ccccc23)NC1=O [Compound 139] (Ac-SEFCI[Trp(1-Me)]QDWGEHRC[Sar]EGESESK([γGlu-Gly-γGlu-C18 diacid])-NH2; disulfide 4-14) | > 7.00 |  |
| CC[C@H](C)[C@H](N)C(=O)N[C@H]1CSSC[C@@H](C(=O)N[C@H](C(N)=O)[C@@H](C)O)NC(=O)[C@H](CCCN=C(N)N)NC(=O)[C@H](Cc2cnc[nH]2)NC(=O)[C@H](Cc2cnc[nH]2)NC(=O)CNC(=O)[C@H](Cc2c[nH]c3ccccc23)NC(=O)[C@H](CC(=O)O)NC(=O)[C@H](CCC(N)=O)NC(=O)[C@H](C(C)C)NC(=O)[C@H](C(C)C)NC1=O [Compstatin] |  | IC50 (Table 3, cells printed in μM, read-out: IC50, inhibition of hemolysis): > 5 µM |
| CC[C@H](C)[C@@H]1NC(=O)[C@@H](NC(=O)[C@H](Cc2ccccc2)NC(C)=O)CSSC[C@@H](C(=O)N[C@H](C(N)=O)[C@@H](C)O)NC(=O)[C@H](CCCNC(=N)N)NC(=O)[C@H](Cc2c[nH]cn2)NC(=O)[C@H](CCC(=O)O)NC(=O)CNC(=O)[C@H](Cc2c[nH]c3ccccc23)NC(=O)[C@H](CC(=O)O)NC(=O)[C@H](CCC(N)=O)NC(=O)[C@H](Cc2c[nH]c3ccccc23)NC1=O [Compound 23] (Ac-FCIWQDWGEHRCT-NH2; disulfide 2-12) | > 7.00 |  |
| CC[C@H](C)[C@H](NC(C)=O)C(=O)N[C@H]1CSSC[C@@H](C(=O)N[C@H](C(=O)N[C@@H](CCC(=O)O)C(=O)NCC(=O)N[C@@H](CCCCN)C(N)=O)[C@@H](C)O)NC(=O)[C@H](CCCNC(=N)N)NC(=O)[C@H](Cc2c[nH]cn2)NC(=O)[C@H](CCC(=O)O)NC(=O)CNC(=O)[C@H](Cc2c[nH]c3ccccc23)NC(=O)[C@H](CC(=O)O)NC(=O)[C@H](CCC(N)=O)NC(=O)[C@H](Cc2c[nH]c3ccccc23)NC(=O)[C@H]([C@@H](C)CC)NC1=O [Compound 39] (Ac-ICIWQDWGEHRCTEGK-NH2; disulfide 2-12) | > 7.00 |  |
| CC[C@H](C)[C@H](NC(C)=O)C(=O)N[C@H]1CSSC[C@@H](C(=O)N[C@H](C(=O)N[C@@H](CCC(=O)O)C(=O)NCC(=O)N[C@@H](CCC(=O)O)C(=O)N[C@@H](CCCCNC(=O)COCCOCCNC(=O)COCCOCCNC(=O)CC[C@H](NC(=O)CCCCCCCCCCCCCCCCC(=O)O)C(=O)O)C(N)=O)[C@@H](C)O)NC(=O)[C@H](CCCNC(=N)N)NC(=O)[C@H](Cc2c[nH]cn2)NC(=O)[C@H](CCC(=O)O)NC(=O)CNC(=O)[C@H](Cc2c[nH]c3ccccc23)NC(=O)[C@H](CC(=O)O)NC(=O)[C@H](CCC(N)=O)NC(=O)[C@H](Cc2c[nH]c3ccccc23)NC(=O)[C@H]([C@@H](C)CC)NC1=O [Compound 97] (Ac-ICIWQDWGEHRCTEGEK([AEEA-AEEA-γGlu-C18 diacid])-NH2; disulfide 2-12) | > 6.60 |  |
| CC[C@H](C)[C@@H]1NC(=O)[C@@H](NC(=O)[C@H](Cc2ccccc2)NC(=O)[C@H](CCC(=O)O)NC(=O)[C@H](CO)NC(C)=O)CSSC[C@@H](C(=O)N(C)CC(=O)N[C@@H](CCC(=O)O)C(=O)NCC(=O)N[C@@H](CCC(=O)O)C(=O)NCCOCCOCC(=O)NCCOCCOCC(=O)NCCOCCOCC(=O)N[C@@H](CCCCNC(=O)CC[C@H](NC(=O)CNC(=O)CC[C@H](NC(=O)CCCCCCCCCCCCCCCCC(=O)O)C(=O)O)C(=O)O)C(N)=O)NC(=O)[C@H](CCCNC(=N)N)NC(=O)[C@H](Cc2c[nH]cn2)NC(=O)[C@H](CCC(=O)O)NC(=O)CNC(=O)[C@H](Cc2c[nH]c3ccccc23)NC(=O)[C@H](CC(=O)O)NC(=O)[C@H](CCC(N)=O)NC(=O)[C@H](Cc2cn(C)c3ccccc23)NC1=O [Compound 143] (Ac-SEFCI[Trp(1-Me)]QDWGEHRC[Sar]EGE[AEEA][AEEA][AEEA]K([γGlu-Gly-γGlu-C18 diacid])-NH2; disulfide 4-14) | > 7.00 |  |
| CC[C@H](C)[C@@H]1NC(=O)[C@@H](NC(=O)[C@H](Cc2ccccc2)NC(=O)[C@H](CCC(=O)O)NC(=O)[C@H](CO)NC(C)=O)CSSC[C@@H](C(=O)N(C)CC(=O)N[C@@H](CCC(=O)O)C(=O)NCC(=O)N[C@@H](CCC(=O)O)C(=O)NCCOCCOCC(=O)NCCOCCOCC(=O)N[C@@H](CCCCNC(=O)CC[C@H](NC(=O)CNC(=O)CC[C@H](NC(=O)CCCCCCCCCCCCCCC(=O)O)C(=O)O)C(=O)O)C(N)=O)NC(=O)[C@H](CCCNC(=N)N)NC(=O)[C@H](Cc2c[nH]cn2)NC(=O)[C@H](CCC(=O)O)NC(=O)CNC(=O)[C@H](Cc2c[nH]c3ccccc23)NC(=O)[C@H](CC(=O)O)NC(=O)[C@H](CCC(N)=O)NC(=O)[C@H](Cc2cn(C)c3ccccc23)NC1=O [Compound 127] (Ac-SEFCI[Trp(1-Me)]QDWGEHRC[Sar]EGE[AEEA][AEEA]K([γGlu-Gly-γGlu-C16 diacid])-NH2; disulfide 4-14) | > 7.00 |  |
| CC[C@H](C)[C@H](NC(C)=O)C(=O)N[C@H]1CSSC[C@@H](C(=O)N[C@H](C(N)=O)[C@@H](C)O)NC(=O)[C@H](CCCNC(=N)N)NC(=O)[C@H](Cc2c[nH]cn2)NC(=O)[C@H](CCCCN)NC(=O)CNC(=O)[C@H](Cc2c[nH]c3ccccc23)NC(=O)[C@H](CC(=O)O)NC(=O)[C@H](CCC(N)=O)NC(=O)[C@H](Cc2c[nH]c3ccccc23)NC(=O)[C@H]([C@@H](C)CC)NC1=O [Compound 5] (Ac-ICIWQDWGKHRCT-NH2; disulfide 2-12) | > 6.60 |  |
| CC[C@H](C)[C@@H]1NC(=O)[C@@H](NC(=O)CN(C)C(=O)[C@H](CCC(=O)O)NC(=O)CNC(C)=O)CSSC[C@@H](C(=O)N[C@H](C(=O)N[C@@H](CCC(=O)O)C(=O)N[C@@H](C)C(N)=O)[C@@H](C)O)NC(=O)[C@H](CCCNC(=N)N)NC(=O)[C@H](Cc2c[nH]cn2)NC(=O)[C@H](CCC(=O)O)NC(=O)CNC(=O)[C@H](Cc2c[nH]c3ccccc23)NC(=O)[C@H](CC(=O)O)NC(=O)[C@H](CCC(N)=O)NC(=O)[C@H](Cc2cn(C)c3ccccc23)NC1=O [Compound 88] (Ac-GE[Sar]CI[Trp(1-Me)]QDWGEHRCTEA-NH2; disulfide 4-14) | > 7.00 |  |
| CC[C@H](C)[C@@H]1NC(=O)[C@@H](NC(=O)CN(C)C(C)=O)CSSC[C@@H](C(=O)N[C@H](C(N)=O)[C@@H](C)O)NC(=O)[C@H](CCCNC(=N)N)NC(=O)[C@H](Cc2c[nH]cn2)NC(=O)[C@H](CCC(=O)O)NC(=O)CNC(=O)[C@H](Cc2c[nH]c3ccccc23)NC(=O)[C@H](CC(=O)O)NC(=O)[C@H](CCC(N)=O)NC(=O)[C@H](Cc2c[nH]c3ccccc23)NC1=O [Compound 11] (Ac-[Sar]CIWQDWGEHRCT-NH2; disulfide 2-12) | > 7.00 |  |
| CC[C@H](C)[C@H](NC(C)=O)C(=O)N[C@H]1CSSC[C@@H](C(=O)N[C@H](C(N)=O)[C@@H](C)O)NC(=O)[C@H](CO)NC(=O)[C@H](Cc2c[nH]cn2)NC(=O)[C@H](C)NC(=O)CNC(=O)[C@H](Cc2c[nH]c3ccccc23)NC(=O)[C@H](CC(=O)O)NC(=O)[C@H](CCC(N)=O)NC(=O)[C@H](Cc2c[nH]c3ccccc23)NC(=O)[C@H](C(C)C)NC1=O [E, reference compound] (Ac-ICVWQDWGAHSCT-NH2; disulfide 2-12) |  | pIC50 (Table 4, valine 3 vs isoleucine 3 pairs, read-out: CP hemolysis IC50): < 6.00 |
| CC[C@H](C)[C@@H]1NC(=O)[C@@H](NC(=O)[C@H](Cc2ccccc2)NC(C)=O)CSSC[C@@H](C(=O)N[C@H](C(=O)NCC(=O)N[C@@H](C)C(=O)N[C@@H](CCC(=O)O)C(N)=O)[C@@H](C)O)NC(=O)[C@H](CCCNC(=N)N)NC(=O)[C@H](Cc2c[nH]cn2)NC(=O)[C@H](CCC(=O)O)NC(=O)CNC(=O)[C@H](Cc2c[nH]c3ccccc23)NC(=O)[C@H](CC(=O)O)NC(=O)[C@H](CCC(N)=O)NC(=O)[C@H](Cc2c[nH]c3ccccc23)NC1=O [Compound 43] (Ac-FCIWQDWGEHRCTGAE-NH2; disulfide 2-12) | > 7.00 |  |
| CC[C@H](C)[C@@H]1NC(=O)[C@@H](NC(=O)[C@H](Cc2ccccc2)NC(=O)[C@H](CCC(=O)O)NC(=O)[C@H](CO)NC(C)=O)CSSC[C@@H](C(=O)N(C)CC(=O)N[C@@H](CCC(=O)O)C(=O)NCC(=O)N[C@@H](CCC(=O)O)C(=O)NCCOCCOCC(=O)NCCOCCOCC(=O)N[C@@H](CCCCNC(=O)CC[C@H](NC(=O)CNC(=O)CC[C@H](NC(=O)CCCCCCCCCCCCCCCCC(=O)O)C(=O)O)C(=O)O)C(N)=O)NC(=O)[C@H](CCCNC(=N)N)NC(=O)[C@H](Cc2c[nH]cn2)NC(=O)[C@H](CCC(=O)O)NC(=O)CNC(=O)[C@H](Cc2c[nH]c3ccccc23)NC(=O)[C@H](CCC(=O)O)NC(=O)[C@H](CCC(N)=O)NC(=O)[C@H](Cc2cn(C)c3ccccc23)NC1=O [Compound 124] (Ac-SEFCI[Trp(1-Me)]QEWGEHRC[Sar]EGE[AEEA][AEEA]K([γGlu-Gly-γGlu-C18 diacid])-NH2; disulfide 4-14) | > 7.00 |  |
